Assay results taken from patent US20200030355A1, “COMBINATION THERAPY FOR TREATING CANCER” (Epizyme, Inc., priority 2014, published 2020).
Structures can show the parent of a compound that is named as a salt. Where two headings read alike, the source gives them in different places.

How the values were obtained:
Format in all cases: cell-based, human
SKM-1 cells = test: EPZ-5676 300 nM 7-day pre-treatment, then second compound 72 hours, ATPLite, IC50 shift (Example 6)
Experimental: Cells were then equilibrated in incubators for 24 hours before treatment with a second compound. Treated assay plates were incubated with a second compound for 72 hours. After this time, plates were developed for endpoint analysis using ATPLite to measure ATP content, which is used as an indicator of cell viability.
“N/D” means that IC50 of the second compound could not be determined for both conditions.

MOLM-13 (MLL-AF9) = test: Combination proliferation study with Compound A2 (ATP/CellTiter-Glo, Chou-Talalay combination index); settings: for Combination with Compound A2, MOLM-13 (MLL-AF9): 7 Day Cotreatment Model, Table 4
Experimental: (§1) The acute myelogenous leukemia cell lines MV4-11 (MLL-AF4) and MOLM-13 (MLL-AF9) were obtained from American Type Culture Collection (ATCC; Rockville, Md.) and Deutsche Sammlung von Mikroorganismen and Zellkulturen (DSMZ; Braunschweig, Germany) respectively.
(§2) Studies were performed using MLL-rearranged cell lines in vitro to evaluate the anti-proliferative effect of a combination of two agents together on cell growth. Initial proliferation studies were performed to determine the IC50 of a given compound in each cell line. The cell counts were measured by ATP quantitation using the Promega Cell Titer Glo kit and luminescence values corresponded to the amount of ATP in a given well.
(§3) Compounds were evaluated for synergy in the co-treatment phase by testing the compounds in a concentration range which was bracketed around their IC50 values. The compounds were plated to a 96 well plate in a matrix format (FIG. 3) which includes increasing concentrations of each drug in the combination in a constant ratio, in addition to the effect of each compound alone in the study. Cells were seeded and grown in the log-linear phase for 3 or 7 days in the co-treatment phase. Minimum inhibition (DMSO alone) controls were used in each plate to calculate fraction affected (Fa) of a test well. DMSO concentration was kept at 0.1% v/v.
(§4) The drug combination analysis was performed utilizing the Chou-Talalay method Synergy was determined using the software package Calcusyn by Biosoft. The combination index (CI) is a quantitative term used to describe the level of synergy or antagonism in a given test system. A combination index less than one indicates synergy, and a CI greater than one indicates antagonism. Further, strong synergism is achieved when the CI value falls below 0.3.
(§5) Graphs representing values of combination index (CI) versus Fractional effect (Fa) known as Fa-CI plots were generated and synergy was evaluated. Drug synergy was statistically defined by CI values less than 1, antagonism by CI>1 and additive effect by CI equal to 1.
Graphs representing values of combination index (CI) versus Fractional effect (Fa) known as Fa-CI plots were generated and synergy was evaluated. Drug synergy was statistically defined by CI values less than 1, antagonism by CI>1 and additive effect by CI equal to 1. […]
Cell viability was measured via ATP content using CellTiter-Glo® (Promega).
Proliferation studies were performed using MOLM-13, MV4-11 and SKM-1 cell lines in vitro to evaluate the cancer cell killing effect of a combination of two agents together on cell growth. Initial proliferation studies were performed to determine the IC50 values of a given compound in each cell line. The cell counts were measured by ATP quantitation using the Promega Cell Titer Glo kit and luminescence values correspond to the amount of ATP in a given well. […]
Compounds evaluated for synergy in the co-treatment phase were tested in a range which was bracketed around the IC50's.

MV4-11 (MLL-AF4) = test: as above; settings: for Combination with Compound A2, MV4-11 (MLL-AF4): 7 Day Cotreatment Model, Table 4; for Combination of Compound A2 and anti-cancer agent, MV4-11: 7 Day Cotreatment
Experimental: as §1, §2, §3, §4, §5, §5
The HP-D300 digital dispenser (Tecan) was used to dispense compounds in a combinatorial matrix. […] Cell viability was measured via ATP content using CellTiter-Glo® (Promega).
Viability was determined using CellTiter-Glo® (Promega).
Proliferation studies were performed using MOLM-13, MV4-11 and SKM-1 cell lines in vitro to evaluate the cancer cell killing effect of a combination of two agents together on cell growth. Initial proliferation studies were performed to determine the IC50 values of a given compound in each cell line. The cell counts were measured by ATP quantitation using the Promega Cell Titer Glo kit and luminescence values correspond to the amount of ATP in a given well.
These studies were performed to evaluate both the combinatorial effect of compounds on cell killing and the durability of the effect by washing out one of the agents.
Compounds evaluated for synergy in the co-treatment phase were tested in a range which was bracketed around the IC50's. The compounds were plated to a 96 well plate in a matrix format which includes increasing concentrations of each drug in the combination in a constant ratio, in addition to the effect of each compound alone in the study.

[1] = SKM-1 cells, 300 nM EPZ-5676 or DMSO 7-day pre-treatment, then 2nd compound 72 hours, ATPLite, Synergy = IC50 of 2nd compound decreased by 2-fold or more vs DMSO control

Molecule	SKM-1 (summary of combination study: EPZ-5676 + 2nd compound) (SKM-1 cells; [1])	Combination with Compound A2, MOLM-13 (MLL-AF9) (MOLM-13 (MLL-AF9))	Combination with Compound A2, MV4-11 (MLL-AF4) (MV4-11 (MLL-AF4))	also measured
CN(C)CC[C@H](CSc1ccccc1)Nc1ccc(S(=O)(=O)NC(=O)c2ccc(N3CCN(Cc4ccccc4-c4ccc(Cl)cc4)CC3)cc2)cc1[N+](=O)[O-] [ABT-737]	Synergy (considered synergistic if the IC50 value of the second compound decreased by 2-fold or more when EPZ-5676 was added as compared to the DMSO control)			
COc1ccc(-c2ccc3c(N4CCOC[C@@H]4C)nc(N4CCOC[C@@H]4C)nc3n2)cc1CO [AZD 8055]	Synergy (considered synergistic if the IC50 value of the second compound decreased by 2-fold or more when EPZ-5676 was added as compared to the DMSO control)			
O=C(Nc1cccc(Nc2ncc(Br)c(NCCc3cnc[nH]3)n2)c1)N1CCCC1 [BX-912]	Synergy (considered synergistic if the IC50 value of the second compound decreased by 2-fold or more when EPZ-5676 was added as compared to the DMSO control)			
C#Cc1cccc(Nc2ncnc3cc(OCCOC)c(OCCOC)cc23)c1 [Erlotinib Hydrochloride]	Synergy (considered synergistic if the IC50 value of the second compound decreased by 2-fold or more when EPZ-5676 was added as compared to the DMSO control)			
N#Cc1c(C2CCNCC2)cc(-c2c(O)cccc2OCC2CC2)nc1N [IKK-2 Inhibitor VIII]	Synergy (considered synergistic if the IC50 value of the second compound decreased by 2-fold or more when EPZ-5676 was added as compared to the DMSO control)			
CC(C)C[C@H](NC(=O)CNC(=O)c1cc(Cl)ccc1Cl)B(O)O [MLN2238]	Synergy (considered synergistic if the IC50 value of the second compound decreased by 2-fold or more when EPZ-5676 was added as compared to the DMSO control)			
S=c1nc[nH]c2nc[nH]c12 [Mercaptopurine]		Additive --> Synergy	Additive (additive effect by CI equal to 1)	
CN(Cc1cnc2nc(N)nc(N)c2n1)c1ccc(C(=O)N[C@@H](CCC(=O)O)C(=O)O)cc1 [Methotrexate]		Additive (additive effect by CI equal to 1)	Additive (additive effect by CI equal to 1)	
C[C@H]1C[C@@H]2[C@H]([C@@H](O)C[C@@]3(C)[C@H]2CC[C@]3(O)C(=O)CO)[C@@]2(C)C=CC(=O)C=C12 [Methylprednisolone]	Synergy (considered synergistic if the IC50 value of the second compound decreased by 2-fold or more when EPZ-5676 was added as compared to the DMSO control)			
O=C1c2c(O)ccc(O)c2C(=O)c2c(NCCNCCO)ccc(NCCNCCO)c21 [Mitoxantrone]		Synergy (Drug synergy was statistically defined by CI values less than 1)	Synergy (Drug synergy was statistically defined by CI values less than 1)	Combination of Compound A2 and anti-cancer agent, MV4-11 (MV4-11 (MLL-AF4)): Synergy (A combination index less than one indicates synergy)
C=C[C@@]1(C)CC(=O)[C@]2(O)[C@@]3(C)[C@@H](O)CCC(C)(C)[C@@H]3[C@H](OC(=O)CCN(C)C)[C@H](OC(C)=O)[C@@]2(C)O1.Cl [NKH 477]	Synergy (considered synergistic if the IC50 value of the second compound decreased by 2-fold or more when EPZ-5676 was added as compared to the DMSO control)			
CC1(C)CCC(c2ccc(Cl)cc2)=C(CN2CCN(c3ccc(C(=O)NS(=O)(=O)c4ccc(N[C@H](CCN5CCOCC5)CSc5ccccc5)c(S(=O)(=O)C(F)(F)F)c4)cc3)CC2)C1 [Navitoclax]		Synergy (Drug synergy was statistically defined by CI values less than 1)	Synergy (Drug synergy was statistically defined by CI values less than 1)	Combination of Compound A2 and anti-cancer agent, MOLM-13 (MOLM-13 (MLL-AF9); 7 Day Cotreatment): synergy; Combination of Compound A2 and anti-cancer agent, MV4-11 (MV4-11 (MLL-AF4)): synergy
CC(C)CC(=O)Nc1[nH]nc2c1CN(C(=O)C1CCN(C)CC1)C2(C)C [PHA-793887]	Synergy (considered synergistic if the IC50 value of the second compound decreased by 2-fold or more when EPZ-5676 was added as compared to the DMSO control)			
CC(=O)c1c(C)c2cnc(Nc3ccc(N4CCNCC4)cn3)nc2n(C2CCCC2)c1=O [Palbociclib]		Synergy (Drug synergy was statistically defined by CI values less than 1)	Synergy (Drug synergy was statistically defined by CI values less than 1)	
Cc1[nH]c2ccccc2c1CCNCc1ccc(/C=C/C(=O)NO)cc1 [Panobinostat]		Synergy (Drug synergy was statistically defined by CI values less than 1)	Antagonistic (antagonism by CI>1)	
COc1ccc(Cc2nccc3cc(OC)c(OC)cc23)cc1OC [Papaverine Hydrochloride]	Synergy (considered synergistic if the IC50 value of the second compound decreased by 2-fold or more when EPZ-5676 was added as compared to the DMSO control)			
CC(C)(C)c1cc(NC(=O)Nc2ccc(-c3cn4c(n3)sc3cc(OCCN5CCOCC5)ccc34)cc2)no1 [Quizartinib]		Synergy (Drug synergy was statistically defined by CI values less than 1)		Combination of Compound A2 and anti-cancer agent, MV4-11 (MV4-11 (MLL-AF4)): synergy
COc1ccc(CCc2nc3cc(-c4c(C)noc4C)ccc3n2C[C@H](C)N2CCOCC2)cc1Cl [SGC-CBP30]	Synergy (considered synergistic if the IC50 value of the second compound decreased by 2-fold or more when EPZ-5676 was added as compared to the DMSO control)			
CCN(CC)CCNC(=O)c1c(C)[nH]c(/C=C2\C(=O)Nc3ccc(F)cc32)c1C [Sunitinib Malate]	2.0			
CC[C@]1(O)C[C@H]2CN(CCc3c([nH]c4ccccc34)[C@@](C(=O)OC)(c3cc4c(cc3OC)N(C=O)[C@H]3[C@@](O)(C(=O)OC)[C@H](OC(C)=O)[C@]5(CC)C=CCN6CC[C@]43[C@@H]65)C2)C1 [Vincristine]		Additive (additive effect by CI equal to 1)	Additive (additive effect by CI equal to 1)	
O=C(CCCCCCC(=O)Nc1ccccc1)NO [Vorinostat]		Additive/Synergy	Antagonistic (antagonism by CI>1)	
Arsenic Trioxide				SKM-1 (summary of combination study: EPZ-5676 + 2nd compound) (SKM-1 cells): 2.0
